Our source for the AC50 values is PubChem BioAssay AID588498 (Molecular Libraries Program, Specialized Chemistry Center, …, 2011).

For this assay, the target named is Luciferin 4-monooxygenase (Photinus pyralis) (UniProt P08659). Briefly: firefly luciferase inhibitors or activators, profiling panel, counter-screen for EBNA-1 inhibitor project, biochemical, qHTS, purified enzyme, Km substrates, luminescence (AID 588498). The settings on record: purified FLuc. For orientation: The purpose of a counterscreen is to sort out artefacts and off-target activity.

Activity calls are given as the source filed them.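 The calls were made as follows: active = compounds that block purified firefly luciferase enzyme with half-maximal potency below 20 µM; inactive = the rest.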

Sequence of Luciferin 4-monooxygenase (Photinus pyralis) (P08659 whole entry, looked up): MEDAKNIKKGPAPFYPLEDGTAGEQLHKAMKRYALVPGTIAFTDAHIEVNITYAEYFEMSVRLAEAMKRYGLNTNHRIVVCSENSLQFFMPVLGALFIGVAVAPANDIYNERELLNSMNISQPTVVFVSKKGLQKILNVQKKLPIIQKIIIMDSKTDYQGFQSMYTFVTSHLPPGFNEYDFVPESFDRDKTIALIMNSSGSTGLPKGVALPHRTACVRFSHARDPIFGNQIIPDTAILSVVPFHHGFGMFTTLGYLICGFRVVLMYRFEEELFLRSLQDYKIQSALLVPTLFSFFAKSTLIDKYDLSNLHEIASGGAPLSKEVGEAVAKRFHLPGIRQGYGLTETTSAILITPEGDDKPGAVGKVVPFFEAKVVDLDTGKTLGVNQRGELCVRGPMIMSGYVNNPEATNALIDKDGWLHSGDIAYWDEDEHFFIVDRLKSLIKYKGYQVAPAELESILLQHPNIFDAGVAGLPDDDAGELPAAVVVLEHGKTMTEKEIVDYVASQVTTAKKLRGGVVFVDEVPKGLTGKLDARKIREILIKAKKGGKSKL

As usually defined, the AC50 is the concentration at which the activity in the assay is half-maximal. For `CS(=O)(=O)c1ccc2nc(NC(=O)c3ccccc3Cl)sc2c1`, the AC50 is 3.26 µM.
Consider `Nc1c(C(=O)Nc2ccc3c(c2)OCCO3)nnn1Cc1cccc(Cl)c1`, for which the AC50 was 3.26 µM.
`COc1ccc(C(=O)Nc2nc3ccc(S(C)(=O)=O)cc3s2)cc1`: the half-maximal activity concentration (AC50) was 2.59 µM.
As for `Cc1ccc(-n2nnnc2SCC(=O)c2cc(C)n(CC3CCCO3)c2C)cc1` (centres undefined), the AC50 was 6.51 µM.
As for `Cc1ccccc1-n1nnnc1SCC(=O)c1cc(C)n(CC2CCCO2)c1C` (centres undefined), the AC50 was 2.91 µM.
For `Cc1ccccc1NC(=O)c1nnn(Cc2cccc(Cl)c2)c1N`, the AC50 is > 30 µM (inactive).
In the case of `COc1cccc(Cn2nnc(C(=O)Nc3ccc4c(c3)OCCO4)c2N)c1`, the AC50 was 4.11 µM.
`COc1ccc2nc(NC(=O)c3ccc(C)c(C)c3)sc2c1`: the AC50 was 0.651 µM.
On to `Cc1cccc(C(=O)Nc2nc3ccc(S(C)(=O)=O)cc3s2)c1`, for which the AC50 is 2.91 µM.
As for `Cc1cccc(-n2nnnc2SCC(=O)c2cc(C)n(CC3CCCO3)c2C)c1` (centres undefined), the AC50 is 18.3 µM.
As for `CS(=O)(=O)c1ccc2nc(NC(=O)c3cccc(F)c3)sc2c1`, the AC50 is 0.366 µM.
Turning to `Cc1ccc(C(=O)Nc2nc3ccc(S(C)(=O)=O)cc3s2)cc1C`, the AC50 is 5.8 µM.
As for `Cc1cc(C(=O)CSc2nnnn2-c2ccccc2)c(C)n1CC1CCCO1` (centres undefined), the AC50 was 2.06 µM.
For the compound `Nc1c(C(=O)Nc2ccc3c(c2)OCCO3)nnn1Cc1cccc(C(F)(F)F)c1`, the AC50 was 20.6 µM.
Turning to `COCCn1c(C)cc(C(=O)CSc2nnnn2-c2ccccc2)c1C`, the AC50 is 1.63 µM.
In the case of `Nc1c(C(=O)Nc2cccc(C(F)(F)F)c2)nnn1Cc1cccc(Cl)c1` it was > 30 µM (inactive); in that of `Cc1ccccc1C(=O)Nc1nc2ccc(S(C)(=O)=O)cc2s1`, 6.51 µM.
In the case of `Cc1ccc(C(=O)Nc2nc3ccc(S(C)(=O)=O)cc3s2)cc1`, the AC50 was 1.83 µM.
As to `COc1ccc(Cn2nnc(C(=O)Nc3ccc4c(c3)OCCO4)c2N)cc1`, the AC50 is 2.91 µM.
